Assay results from article PMC11099041, “Tissue distribution and retention drives efficacy of rapidly clearing VHL-based PROTACs” (Communications Medicine, 2024).
Values joined by “and” are separate entries in the source; they are usually repeats but may differ in a detail not shown here. Equal values may be shown once. Read-outs that look alike come from different tables or passages of the source.

Assay: Mouse pharmacokinetics in CD-1 mice (blood, kidney, liver, lung)
Type: in vivo
Description: For the PK study, a total of 42 male CD-1 mice weighing ~20-35 g were acquired from Lingchang/Vital River Laboratory Animal Co., Ltd. (Shanghai/Beijing, P.R. China) and divided into 2 treatment groups. […] was dosed with one low dose (1 mg/kg) and one high dose group (20 mg/kg). For the low-dose groups, nine animals were required for organ quantification with termination at 24 hours. For the high-dose groups, 12 animals were required for organ quantification with termination at 48 hours. The animal was administered either 1 mg/kg or 20 mg/kg of formulation solution (10% HP-β-CD in acetate buffer at pH 4.0) by IV bolus through the left lateral tail vein injection. […] Blood samples were placed on wet ice, mixed, then frozen and stored in a freezer set to -60 °C or lower until analysis. After the blood samples were collected at the terminal time points, the animals were sacrificed, and the liver, lung and kidney were harvested. The tissues were rinsed in cold water and then blotted on filter papers, weighed and homogenized using pre-cooled water at the ratio of 1:4. The tissue homogenate samples were kept at -70 °C until analysis. […] Working standard solutions were spiked into 25 μL of blank matrix on the sample plate. […] The supernatant (20 μL) was transferred into the MS injection plate, then diluted with water before injection for LC-MS/MS analysis. The concentrations of […] were quantified by an LC-MS/MS method. The LC-MS/MS system was a Waters Acquity UPLC System (Milford, MA) coupled to a Sciex Triple Quad 6500 Plus mass spectrometer (AB Sciex, Foster City, CA). The aqueous mobile phase for the analysis was 0.1% formic acid and 2 mM ammonium formate in water/ACN (v:v, 95:5) (A), and the organic mobile phase was 0.1% formic acid and 2 mM ammonium formate in ACN/water (v:v, 95:5) (B). […] Column temperature was set at 50 °C. […] The flow rate was set at 0.7 mL/min. […] The lower limit of quantitation in all matrices was 5.1 ng/mL. The mean time concentration profile was generated for each group, and an overall AUC was then calculated with these sparse samples of rats and mice. […] The following parameters were estimated whenever possible: C0, Back-extrapolated concentration at time 0; Cmax, Maximum observed concentration; Tmax, Time of maximum observed concentration; AUC0-t, Area under the concentration-time curve from hour 0 to the last measurable concentration, estimated by the linear trapezoidal rule; AUC0-336, Area under the concentration-time curve from hour 0 to hour 336, estimated by the linear trapezoidal rule; DN AUC0-336, Dose normalized AUC0-336, calculated as AUC0-336/dose level; […] AUC0-∞ = AUC0-t + Ct/λz, where Ct is the last measurable concentration and λz is the elimination rate constant; t1/2, Elimination half-life, determined by ln(2)/λz; CL, Clearance, calculated as dose/AUC0-inf; Vd, Volume of distribution based on the terminal phase, calculated as: dose/(λz × AUC0-∞) Nominal doses and sampling times were used. […] Embedded zeros were excluded from kinetic analysis.

Cc1ncsc1-c1ccc(C(C)NC(=O)C2CC(O)CN2C(=O)C(c2cc(N3CCC(CN4CCC(OC5CC(Oc6cc(N7C8CCC7CN(c7cc(-c9ccccc9O)nnc7N)C8)ccn6)C5)CC4)CC3)no2)C(C)C)cc1 (stereo not shown) [A947]
concentration at 0.083 h (Blood, 0.083 h, 1 mg/kg IV, individual animals, read-out: Concentration (µM) from 1 mg/kg Dosing Blood): 0.351 µM and 0.406 µM
concentration at 8 h (Blood, 0.083 h, 20 mg/kg IV, individual animals, read-out: Concentration (µM) from 20 mg/kg Dosing Blood): 11.332 µM and 8.845 µM
concentration at 0.083 h (Blood, 0.25 h, 1 mg/kg IV, individual animals, read-out: Concentration (µM) from 1 mg/kg Dosing Blood): 0.084 µM and 0.113 µM
concentration at 8 h (Blood, 0.25 h, 20 mg/kg IV, individual animals, read-out: Concentration (µM) from 20 mg/kg Dosing Blood): 3.265 µM and 3.4 µM
concentration at 0.083 h (Blood, 0.5 h, 1 mg/kg IV, individual animals, read-out: Concentration (µM) from 1 mg/kg Dosing Blood): 0.044 µM and 0.066 µM
concentration at 8 h (Blood, 0.5 h, 20 mg/kg IV, individual animals, read-out: Concentration (µM) from 20 mg/kg Dosing Blood): 1.604 µM and 1.652 µM
concentration at 0.083 h (Blood, 1 h, 1 mg/kg IV, individual animals, read-out: Concentration (µM) from 1 mg/kg Dosing Blood): 0.02 µM and 0.026 µM
concentration at 8 h (Blood, 1 h, 20 mg/kg IV, individual animals, read-out: Concentration (µM) from 20 mg/kg Dosing Blood): 0.769 µM and 0.821 µM
concentration at 0.083 h (Blood, 2 h, 1 mg/kg IV, individual animals, read-out: Concentration (µM) from 1 mg/kg Dosing Blood): 0.009 µM and 0.013 µM
concentration at 8 h (Blood, 2 h, 20 mg/kg IV, individual animals, read-out: Concentration (µM) from 20 mg/kg Dosing Blood): 0.221 µM and 0.24 µM
Concentration (µM) from 1 mg/kg Dosing Blood (Blood, 4 h, 1 mg/kg IV, individual animals, BLOQ <5.1 ng/mL): BLOQ *
concentration at 0.083 h (Blood, 4 h, 1 mg/kg IV, individual animals, BLOQ <5.1 ng/mL, read-out: Concentration (µM) from 1 mg/kg Dosing Blood): 0.006 µM
concentration at 8 h (Blood, 4 h, 20 mg/kg IV, individual animals, read-out: Concentration (µM) from 20 mg/kg Dosing Blood): 0.212 µM and 0.306 µM and 0.093 µM and 0.117 µM and 0.098 µM and 0.1 µM
Concentration (µM) from 1 mg/kg Dosing Blood (Blood, 8 h, 1 mg/kg IV, individual animals, BLOQ <5.1 ng/mL): BLOQ *
concentration at 8 h (Blood, 8 h, 20 mg/kg IV, individual animals, read-out: Concentration (µM) from 20 mg/kg Dosing Blood): 0.067 µM and 0.056 µM and 0.036 µM and 0.037 µM
Concentration (µM) from 1 mg/kg Dosing Blood (Blood, 12 h, 1 mg/kg IV, individual animals, BLOQ <5.1 ng/mL): BLOQ *
concentration at 8 h (Blood, 12 h, 20 mg/kg IV, individual animals, read-out: Concentration (µM) from 20 mg/kg Dosing Blood): 0.015 µM and 0.017 µM
Concentration (µM) from 1 mg/kg Dosing Blood (Blood, 24 h, 1 mg/kg IV, individual animals, BLOQ <5.1 ng/mL): BLOQ *
Concentration (µM) from 20 mg/kg Dosing Blood (Blood, 24 h, 20 mg/kg IV, individual animals, BLOQ <5.1 ng/mL): BLOQ *
Concentration (µM) from 20 mg/kg Dosing Blood (Blood, 48 h, 20 mg/kg IV, individual animals, BLOQ <5.1 ng/mL): BLOQ *
concentration at 24 h (Kidney, 4 h, 1 mg/kg IV, individual animals, read-out: Concentration (µM) from 1 mg/kg Dosing Kidney): 0.541 µM and 0.391 µM
concentration at 8 h (Kidney, 4 h, 20 mg/kg IV, individual animals, read-out: Concentration (µM) from 20 mg/kg Dosing Kidney): 14.213 µM and 10.852 µM
concentration at 24 h (Kidney, 8 h, 1 mg/kg IV, individual animals, read-out: Concentration (µM) from 1 mg/kg Dosing Kidney): 0.341 µM and 0.338 µM
concentration at 8 h (Kidney, 8 h, 20 mg/kg IV, individual animals, read-out: Concentration (µM) from 20 mg/kg Dosing Kidney): 11.428 µM and 7.712 µM
concentration at 24 h (Kidney, 24 h, 1 mg/kg IV, individual animals, read-out: Concentration (µM) from 1 mg/kg Dosing Kidney): 0.025 µM and 0.027 µM
concentration at 8 h (Kidney, 24 h, 20 mg/kg IV, individual animals, read-out: Concentration (µM) from 20 mg/kg Dosing Kidney): 0.295 µM and 0.508 µM
concentration at 8 h (Kidney, 48 h, 20 mg/kg IV, individual animals, read-out: Concentration (µM) from 20 mg/kg Dosing Kidney): 0.083 µM and 0.066 µM
concentration at 24 h (Liver, 4 h, 1 mg/kg IV, individual animals, read-out: Concentration (µM) from 1 mg/kg Dosing Liver): 0.069 µM and 0.098 µM
concentration at 8 h (Liver, 4 h, 20 mg/kg IV, individual animals, read-out: Concentration (µM) from 20 mg/kg Dosing Liver): 66.456 µM and 51.09 µM and 27.754 µM
concentration at 24 h (Liver, 8 h, 1 mg/kg IV, individual animals, read-out: Concentration (µM) from 1 mg/kg Dosing Liver): 0.039 µM
concentration at 8 h (Liver, 8 h, 20 mg/kg IV, individual animals, read-out: Concentration (µM) from 20 mg/kg Dosing Liver): 18.535 µM and 24.009 µM
Concentration (µM) from 1 mg/kg Dosing Liver (Liver, 24 h, 1 mg/kg IV, individual animals, BLOQ <5.1 ng/mL): BLOQ *
concentration at 8 h (Liver, 24 h, 20 mg/kg IV, individual animals, read-out: Concentration (µM) from 20 mg/kg Dosing Liver): 8.297 µM and 9.7 µM
concentration at 8 h (Liver, 48 h, 20 mg/kg IV, individual animals, read-out: Concentration (µM) from 20 mg/kg Dosing Liver): 1.133 µM and 2.43 µM and 2.132 µM
concentration at 24 h (Lung, 4 h, 1 mg/kg IV, individual animals, read-out: Concentration (µM) from 1 mg/kg Dosing Lung): 0.085 µM and 0.099 µM
concentration at 8 h (Lung, 4 h, 20 mg/kg IV, individual animals, read-out: Concentration (µM) from 20 mg/kg Dosing Lung): 6.463 µM and 5.695 µM
concentration at 24 h (Lung, 8 h, 1 mg/kg IV, individual animals, read-out: Concentration (µM) from 1 mg/kg Dosing Lung): 0.066 µM and 0.071 µM
concentration at 8 h (Lung, 8 h, 20 mg/kg IV, individual animals, read-out: Concentration (µM) from 20 mg/kg Dosing Lung): 2.286 µM and 3.054 µM
concentration at 24 h (Lung, 24 h, 1 mg/kg IV, individual animals, read-out: Concentration (µM) from 1 mg/kg Dosing Lung): 0.011 µM and 0.016 µM
concentration at 8 h (Lung, 24 h, 20 mg/kg IV, individual animals, read-out: Concentration (µM) from 20 mg/kg Dosing Lung): 0.718 µM and 0.295 µM and 0.794 µM
concentration at 8 h (Lung, 48 h, 20 mg/kg IV, individual animals, read-out: Concentration (µM) from 20 mg/kg Dosing Lung): 0.36 µM and 0.211 µM and 1.402 µM
half-life (male, CD-1, mouse, blood and tissues (kidney, liver, lung), iv, CD-1 mice IV, dose = c0, matrix = c1 of the line): 10 to 15 h
concentration at 0.25 h (male, CD-1, mouse, blood, intravenous, 1 mg/kg, Blood, 0.25 h, 1 mg/kg IV, individual animals, read-out: Concentration (µM) from 1 mg/kg Dosing Blood): 0.089 µM
concentration at 0.25 h (male, CD-1, mouse, blood, intravenous, 1 mg/kg, Blood, 0.25 h, 1 mg/kg IV, mean, read-out: Concentration (µM) from 1 mg/kg Dosing Blood): 0.095 µM
concentration at 0.5 h (male, CD-1, mouse, blood, intravenous, 1 mg/kg, Blood, 0.5 h, 1 mg/kg IV, individual animals, read-out: Concentration (µM) from 1 mg/kg Dosing Blood): 0.055 µM
concentration at 0.5 h (male, CD-1, mouse, blood, intravenous, 1 mg/kg, Blood, 0.5 h, 1 mg/kg IV, mean, read-out: Concentration (µM) from 1 mg/kg Dosing Blood): 0.055 µM
concentration at 1 h (male, CD-1, mouse, blood, intravenous, 1 mg/kg, Blood, 1 h, 1 mg/kg IV, individual animals, read-out: Concentration (µM) from 1 mg/kg Dosing Blood): 0.027 µM
concentration at 1 h (male, CD-1, mouse, blood, intravenous, 1 mg/kg, Blood, 1 h, 1 mg/kg IV, mean, read-out: Concentration (µM) from 1 mg/kg Dosing Blood): 0.024 µM
concentration at 2 h (male, CD-1, mouse, blood, intravenous, 1 mg/kg, Blood, 2 h, 1 mg/kg IV, individual animals, read-out: Concentration (µM) from 1 mg/kg Dosing Blood): 0.012 µM
concentration at 2 h (male, CD-1, mouse, blood, intravenous, 1 mg/kg, Blood, 2 h, 1 mg/kg IV, mean, read-out: Concentration (µM) from 1 mg/kg Dosing Blood): 0.011 µM
concentration at 12 h (male, CD-1, mouse, blood, intravenous, 20 mg/kg, Blood, 12 h, 20 mg/kg IV, individual animals, read-out: Concentration (µM) from 20 mg/kg Dosing Blood): 0.019 µM
concentration at 12 h (male, CD-1, mouse, blood, intravenous, 20 mg/kg, Blood, 12 h, 20 mg/kg IV, mean, read-out: Concentration (µM) from 20 mg/kg Dosing Blood): 0.017 µM
concentration at 24 h (male, CD-1, mouse, blood, intravenous, 20 mg/kg, Blood, 24 h, 20 mg/kg IV, individual animals, BLOQ <5.1 ng/mL, read-out: Concentration (µM) from 20 mg/kg Dosing Blood): 0.007 µM
concentration at 24 h (male, CD-1, mouse, blood, intravenous, 20 mg/kg, Blood, 24 h, 20 mg/kg IV, mean, read-out: Concentration (µM) from 20 mg/kg Dosing Blood): 0.007 µM
Vd (male, CD-1, mouse, blood, iv, CD-1 mice IV, dose = c0): 20 to 23 L/kg
concentration at 0.083 h (male, CD-1, mouse, in vivo, 1 mg/kg, Blood, 0.083 h, 1 mg/kg IV, individual animals, read-out: Concentration (µM) from 1 mg/kg Dosing Blood): 0.338 µM
concentration at 0.083 h (male, CD-1, mouse, in vivo, 1 mg/kg, Blood, 0.083 h, 1 mg/kg IV, mean, read-out: Concentration (µM) from 1 mg/kg Dosing Blood): 0.365 µM
concentration at 4 h (male, CD-1, mouse, in vivo, 1 mg/kg, Blood, 4 h, 1 mg/kg IV, individual animals, BLOQ <5.1 ng/mL, read-out: Concentration (µM) from 1 mg/kg Dosing Blood): 0.005 µM
